Experimental findings from patent publication US20080219977A1, “Combinations Comprising Gemcitabine and Tyrosine Kinase Inhibitors for the Treatment of Pancreatic Cancer” (priority 2005, published 2008) are described below.

The structures appear in SMILES notation.

Assay [1] concerns PDGFRβ. Put plainly: IHC analysis of phosphorylated PDGFRβ in L3.6pl pancreatic tumors. Format: in vivo, human. The conditions noted are these: IHC of pancreatic tumors from treated mice. From the text: Immunohistochemical (IHC) Analysis to Detect EGF, VEGF, PDGF-BB, EGFR, VEGFR, PDGFRβ, pEGFR, pVEGFR, pPDGF-R in Pancreatic Tumors. Paraffin-embedded pancreatic tumors of mice from all treatment groups are immunostained to evaluate the expression of EGF, VEGF, PDGF-BB, EGFR, VEGFR, PDGFRβ, phosphorylated (p)EGFR, pVEGFR, and pPDGFRβ. The sections are deparaffinized in xylene, dehydrated with alcohol and rehydrated in PBS. Endogenous peroxidase is blocked with 3% hydrogen peroxide in PBS. Samples are exposed to protein block (5% normal horse serum, 1% normal goat serum in PBS) and incubated overnight at 4° C. with each primary antibody at the appropriate dilution. […] Slides are counterstained with Gill's #3 hematoxylin. Sections stained for immunoperoxidase or hematoxylin and eosin are examined in a microscope equipped with a three-chip-charged coupled device (CCD) color video camera. Digital images are captured using Optimas Image Analysis software (Media Cybernetics, Md.).

Assay [2] relates to L3.6pl human pancreatic cancer cells. Kind of assay: Therapy of established L3.6pl human pancreatic carcinoma tumors growing in the pancreas of athymic nude mice (tumor weight). Format: in vivo. From the text: Animals and Orthotopic Implantation of Tumor Cells. Male athymic nude mice (NCI-nu) are purchased from the Animal Production Area of the National Cancer Institute Frederick Cancer Research and Development Center (Frederick, Md.). The mice are housed and maintained under specific pathogen-free conditions. The mice are used when they are 8 to 12 weeks old. To produce pancreatic tumors, L3.6pl cells are harvested from subconfluent cultures by a brief exposure to 0.25% trypsin and 0.02% EDTA. Trypsinization is stopped with medium containing 10% FBS, and the cells are washed once in serum-free medium and resuspended in Hanks' balanced salt solution (HBSS). Only suspensions consisting of single cells with greater than 90% viability are used for injection into the pancreas of nude mice as described previously (Hwang et al. in Clin Cancer Res 2003; 9:6534-44). Treatment of Established Human Pancreatic Carcinoma Tumors Growing in the Pancreas of Athymic Nude Mice. Twenty-one days after the intra-pancreatic injection of 0.5×10^6 viable L3.6pl cells in 50 μl HBSS, the pancreatic tumors reach the size of 5-6-mm. […] All mice are treated for 4 weeks and killed on day 49 of the experiment. Necropsy Procedures and Histological Studies. […] Tumors growing in the pancreas are excised and weighed. For immunohistochemical staining procedures, one part of the tumor tissue is fixed in formalin and embedded in paraffin and the other is embedded in OCT compound (Miles, Inc., Elkhart, Ind.), rapidly frozen in liquid nitrogen, and stored at −70° C. Statistical Analysis. Body weight, tumor weight, PCNA-positive cells, mean vessel density (CD31/PECAM-1), and TUNEL-positive cells are compared using the Mann-Whitney U test. Survival analysis is computed by the Kaplan-Meier method and compared by the Log rank test.

The subject of assay [3] is EGF, VEGF, PDGF-BB, EGFR, VEGFR, and PDGFR. Kind of assay: IHC expression level of growth factors and receptors in L3.6pl pancreatic tumors. Format: in vivo, human. The conditions noted are these: IHC of pancreatic tumors from treated mice. The source says: Immunohistochemical (IHC) Analysis to Detect EGF, VEGF, PDGF-BB, EGFR, VEGFR, PDGFRβ, pEGFR, pVEGFR, pPDGF-R in Pancreatic Tumors. Paraffin-embedded pancreatic tumors of mice from all treatment groups are immunostained to evaluate the expression of EGF, VEGF, PDGF-BB, EGFR, VEGFR, PDGFRβ, phosphorylated (p)EGFR, pVEGFR, and pPDGFRβ. The sections are deparaffinized in xylene, dehydrated with alcohol and rehydrated in PBS. Endogenous peroxidase is blocked with 3% hydrogen peroxide in PBS. Samples are exposed to protein block (5% normal horse serum, 1% normal goat serum in PBS) and incubated overnight at 4° C. with each primary antibody at the appropriate dilution. After 1 h incubation at room temperature with peroxidase-conjugated secondary antibody, positive reaction is detected by exposure to stable 3,3′-diaminobenzidine (DAB) (Phoenix Biotechnologies, Huntsville, Ala.). Slides are counterstained with Gill's #3 hematoxylin. Sections stained for immunoperoxidase or hematoxylin and eosin are examined in a microscope equipped with a three-chip-charged coupled device (CCD) color video camera. Digital images are captured using Optimas Image Analysis software (Media Cybernetics, Md.).

The test system of assay [4] is tumor-associated endothelial cells. Kind of assay: CD31/TUNEL fluorescent double labeling, apoptosis of tumor-associated endothelial cells. The conditions noted are these: Median ± S.D.; ratio of apoptotic endothelial cells to total endothelial cells. The format is in vivo, nude mice. Here is the method:
Double Immunofluorescence Staining for CD31/PECAM-1 and EGFR, pEGFR, VEGFR, pVEGFR, PDGFRβ, pPDGFRβ, Pericytes (desmin-positive cells), and TUNEL. Frozen sections of pancreatic tumors are mounted on slides and fixed. Immunofluorescence for CD31 is performed using Alexa594 conjugated secondary antibody, and samples are again blocked briefly in a blocking solution (5% normal horse serum and 1% normal goat serum in PBS) as described above and incubated with antibody against human EGFR, pEGFR, VEGFR, pVEGFR, PDGFRβ, pPDGFRβ, or desmin at 4° C. overnight. After washes and blocking with blocking solution, samples are incubated with Alexa488 conjugated secondary antibody. Endothelial cells are identified by red fluorescence, and EGF-R, pEGFR, VEGFR, pVEGFR, PDGFRβ, pPDGFRβ and desmin positive cells (pericytes) are identified by green fluorescence. The presence of growth factor receptors and phosphorylated receptors on endothelial cells are detected by colocalization of red and green fluorescence, which appeared yellow. TUNEL-positive apoptotic cells are detected by localized green fluorescence within cell nuclei, and endothelial cells are identified by red fluorescence. Apoptotic endothelial cells are identified by yellow fluorescence within the nuclei.

Assay [5] has as its target T1, PDGFRβ (Mus musculus, UniProt P05622).
T1 construct: Frozen sections of pancreatic tumors are mounted on slides and fixed; from tissue; host or cells: tumour-associated endothelial cells in L3.6pl tumours of nude mice
Put plainly: Double immunofluorescence CD31/pPDGFRβ on tumor-associated endothelial cells. The conditions noted are these: double immunofluorescence with CD31. The format is in vivo, nude mice.

The subject of assay [6] is tumor-associated endothelial cells. Kind of assay: Pericyte (desmin) coverage on tumor-associated endothelial cells. Format: in vivo, nude mice. The conditions noted are these: desmin-positive cells in contact with CD31-positive cells.
Description: Double Immunofluorescence Staining for CD31/PECAM-1 and EGFR, pEGFR, VEGFR, pVEGFR, PDGFRβ, pPDGFRβ, Pericytes (desmin-positive cells), and TUNEL. Frozen sections of pancreatic tumors are mounted on slides and fixed. Immunofluorescence for CD31 is performed using Alexa594 conjugated secondary antibody, and samples are again blocked briefly in a blocking solution (5% normal horse serum and 1% normal goat serum in PBS) as described above and incubated with antibody against human EGFR, pEGFR, VEGFR, pVEGFR, PDGFRβ, pPDGFRβ, or desmin at 4° C. overnight. After washes and blocking with blocking solution, samples are incubated with Alexa488 conjugated secondary antibody. Endothelial cells are identified by red fluorescence, and EGF-R, pEGFR, VEGFR, pVEGFR, PDGFRβ, pPDGFRβ and desmin positive cells (pericytes) are identified by green fluorescence. The presence of growth factor receptors and phosphorylated receptors on endothelial cells are detected by colocalization of red and green fluorescence, which appeared yellow. The coverage of pericytes on endothelial cells is determined by counting CD31 positive cells in direct contact with desmin-positive cells and CD31-positive cells without direct association with desmin-positive cells in five randomly selected microscopic fields.
In assay [7] the test system is L3.6pl human pancreatic cancer cells. Kind of assay: Apoptosis (TUNEL) in L3.6pl tumors. Format: in vivo. The conditions noted are these: Median ± S.D.; TUNEL-positive cells in 10 random 0.159-mm^2 fields at ×100. Here is the method:
Analysis of apoptotic cells is performed by using a commercially available TUNEL kit (Promega) with the following modifications: Samples are fixed and incubated with an equilibration buffer followed by a reaction buffer (containing nucleotide mix and terminal deoxynucleotidyl transferase enzyme). Immunofluorescence microscopy is performed in a Zeiss Axioplan microscope (Carl Zeiss, Inc., Thornwood, N.Y.) equipped with an HBO 100 mercury lamp, narrow bandpass filters to individually select for green, red, and blue fluorescence (Chroma Technology Corp., Brattleboro, Vt.). Images are captured using a cooled CCD Hamamatsu Orca camera (Hamamatsu Corp., Bridgewater, N.J.) and Image Pro Analysis software (Media Cybernetics, Silver Spring, Md.). Photomontages are prepared using Adobe Photoshop software (Adobe Systems, Inc., San Jose, Calif.). […] Statistical Analysis. Body weight, tumor weight, PCNA-positive cells, mean vessel density (CD31/PECAM-1), and TUNEL-positive cells are compared using the Mann-Whitney U test. Survival analysis is computed by the Kaplan-Meier method and compared by the Log rank test.

T1 sequence (P05622 32-1098): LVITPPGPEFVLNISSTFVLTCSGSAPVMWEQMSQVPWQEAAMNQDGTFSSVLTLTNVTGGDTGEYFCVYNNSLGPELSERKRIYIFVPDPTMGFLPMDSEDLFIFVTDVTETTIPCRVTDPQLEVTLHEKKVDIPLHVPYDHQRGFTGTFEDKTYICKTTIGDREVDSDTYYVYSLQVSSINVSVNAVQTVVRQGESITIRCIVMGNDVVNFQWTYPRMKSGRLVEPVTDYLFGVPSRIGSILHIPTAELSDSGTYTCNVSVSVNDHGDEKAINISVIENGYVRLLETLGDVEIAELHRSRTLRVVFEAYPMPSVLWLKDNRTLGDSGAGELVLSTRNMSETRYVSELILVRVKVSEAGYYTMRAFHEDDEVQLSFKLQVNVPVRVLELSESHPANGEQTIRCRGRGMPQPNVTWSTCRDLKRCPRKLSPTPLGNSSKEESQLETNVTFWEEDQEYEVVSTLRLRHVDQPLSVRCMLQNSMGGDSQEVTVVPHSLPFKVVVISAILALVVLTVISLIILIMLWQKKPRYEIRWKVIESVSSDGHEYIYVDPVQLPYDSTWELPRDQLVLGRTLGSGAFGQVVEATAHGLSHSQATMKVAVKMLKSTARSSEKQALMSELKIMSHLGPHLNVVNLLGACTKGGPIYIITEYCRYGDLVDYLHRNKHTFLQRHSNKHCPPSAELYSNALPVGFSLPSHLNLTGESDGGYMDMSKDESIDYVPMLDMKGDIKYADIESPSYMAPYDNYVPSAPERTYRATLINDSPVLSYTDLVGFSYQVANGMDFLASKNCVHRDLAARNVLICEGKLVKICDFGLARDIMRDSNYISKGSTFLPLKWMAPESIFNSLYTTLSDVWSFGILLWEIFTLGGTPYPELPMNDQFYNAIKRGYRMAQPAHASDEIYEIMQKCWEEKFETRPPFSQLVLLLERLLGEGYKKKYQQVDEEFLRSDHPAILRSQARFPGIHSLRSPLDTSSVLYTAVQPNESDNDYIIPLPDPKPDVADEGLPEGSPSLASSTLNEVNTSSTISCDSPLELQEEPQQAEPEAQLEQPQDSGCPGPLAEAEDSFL

Turning to `Cc1ccc(NC(=O)c2ccc(CN3CCN(C)CC3)cc2)cc1Nc1nccc(-c2cccnc2)n1` [STI571, N-{5-[4-(4-methyl-piperazino-methyl)-benzoylamido]-2-methylphenyl}-4-(3-pyridyl)-2-pyrimidine-amine], the “phosphorylation of PDGFRβ in tumors” value in the assay with PDGFRβ [1] was “inhibited”. For the same molecule, in assay [2] (L3.6pl implanted in the pancreas of nude mice, each drug 50 mg/kg), the “effect on tumor growth (in words)” value is recorded as “does not inhibit tumor growth”. Besides, the “Tumor weight (g) Median” value in assay [2] (pancreatic tumor, AEE788 50 mg/kg oral 3x/week, STI571 50 mg/kg oral daily, gemcitabine 50 mg/kg i.p. twice weekly, 4 weeks, killed day 49, n=10) was 0.96 g. In addition, the “expression level of EGF, VEGF, PDGF-BB, EGFR, VEGFR, and PDGFR by the tumor cells or in the stroma cells” value in assay [3] is “do not alter the expression level”. In addition, in assay [4], the “Endothelial cells TUNEL+ (%)” value was 0 ± 0%. On PDGFRβ [5], the “phosphorylation of PDGFRβ on tumor-associated endothelial cells” value is recorded as “decreased”. The “pericyte coverage on tumor-associated endothelial cells” value in assay [6] is given as “decreases pericyte coverage”. Besides, the “Tumor cells TUNEL (number of apoptotic tumor cells)” value in assay [7] is given as 6 ± 2.
